System: HEK293 GFP-correction line
Assay: Targeted gene modification by HDR/HITI in HEK293 GFP-correction line
Type: cell-based
Conditions: NU7026 30 μM
Excerpt: Generation of HEK293 GFP-correction line. To assess the efficiency of targeted gene modification by HDR and HITI in dividing cells, a mutated GFP gene-based reporter system was established in HEK293. Briefly, pEGIP*35 was co-transfected with pMDLg/pRRE, pRSV-Rev and pMD2.G, packaged and purified as lentiviral vectors according to a published protocol Kutner, R. H., Zhang, X.-Y. & Reiser, J. Production, concentration and titration of pseudotyped HIV-1-based lentiviral vectors. Nature Protocols 4, 495-505 (2009). HEK293 cells were transduced in suspension with lentiviral EGIP*35 vector and 4 μg/ml polybrene for 1 h. After brief centrifugation to remove any residual lentiviral vector, the cells were seeded in 100 mm dishes. Three days after transduction, puromycin (1-2 μg/ml; Invitrogen) was added to the medium. After 10 days, single colonies were individually picked up and expanded as HEK293 GFP-correction line.
Transfection of in vitro cultured cells. […]
Existing methods were improved for more robust NHEJ-based targeted knock-in. […] The efficiencies of targeted gene replacement via HDR and homology-independent targeted integration (HITI) were determined by GFP and mCherry signals respectively (FIG. 1A). […]

SMILES: O=c1cc(N2CCOCC2)oc2c1ccc1ccccc12 [NU7026]
- effect of NHEJ inhibitor on efficiency of HITI: significantly decreased
